US11912693B2, “Compounds for modulating S1P1 activity and methods of using the same” (TREVENA, INC., priority 2017, dated 2024)

What was measured:
[1] = tested on: Freund's Complete Adjuvant induced inflammation / mechanical allodynia; experiment: Tactile allodynia produced by intraplantar Freund's Complete Adjuvant in rats (Randall-Selitto); type: in vivo, rat; conditions: CFA model, 24 hours after CFA
Procedure: Animals were acclimated to the vivarium for at least 48 hr prior to behavioral testing. Inflammation was induced with the administration of an intraplantar (subcutaneous injection into the plantar surface of the hind paw, i.pl.) injection of 0.10 ml Freund's Complete Adjuvant (FCA). The experiments were conducted 24 hours after CFA administration. Rats are tested for mechanical allodynia in a Randall-Selitto apparatus. The inflamed paw is put on a pedestal and a pointed force of increasing intensity (0 to 250 grams) is applied to the paw. When the animal struggles to withdraw from the force the test is stopped and the force to induce that struggle is recorded. Data is presented as mean grams of force to withdrawal or a percentage of the maximum possible effect.

[2] = tested on: STZ-induced diabetic neuropathy; experiment: Tactile allodynia and thermal hyperalgesia in streptozotocin-induced (STZ) diabetic neuropathy model; type: in vivo, Sprague Dawley rats; conditions: for Active Doses in STZ Diabetic Neuropathy Model (mg/kg, po) (p < 0.05 compared to STZ + VEH treated mice) MECHANICAL: mechanical allodynia, manual von Frey; for Active Doses in STZ Diabetic Neuropathy Model (mg/kg, po) (p < 0.05 compared to STZ + VEH treated mice) THERMAL: thermal hyperalgesia, paw withdrawal latency
Procedure: A cohort of 48 male Sprague Dawley rats, weighing 225-250 g at arrival, was group housed under constant temperature, humidity and a 12-hour light-dark cycle. Following acclimation to the animal colony, the animals were tested for baseline withdrawal responses to mechanical allodynia and thermal hyperalgesia using the methods described below in Chaplan, S. R., Bach, […]., Chung, J. M. and Yaksh, T. L. Quantitative assessment of tactile allodynia in the rat paw. J. Neurosci. Methods 53: 55-63, 1994; Joris, J. L., Dubner, R. and Hargreaves, K. M. Opioid analgesia at Peripheral Sites: a Target for Opioids Released during Stress and Inflammation? Anesthesia and Analgesia 66(12), 1277-81, 1987; and Morrow, T. J. Animal Models of Painful Diabetic Neuropathy: The STZ rat model. Current Protocols in Neuroscience, November; Chapter 9, Unit 9.18, 2004.. […] Two days later (on Day 3), hyperglycermia was confirmed by existence of blood glucose >350 mg/dL as measured by glucometer, and the animal health was monitored biweekly for 12 days. For measures of mechanical allodynia, rats were preselected for experimentation only if the pain threshold 7-14 days after STZ injection (pre-treatment) was reduced by 10 grams of force relative to the response of the individual paw before STZ challenge (pre-induction), namely, with clear presence of allodynia. The rats were randomized based on pre-dose mechanical allodynia scores to balanced treatment groups. The animals were tested prior to study inclusion for mechanical allodynia by the manual von Frey test on Day 20 (Chaplan up/down method using von Frey filaments on the plantar surface of the paw). The manual von Frey test was repeated at 0.5 or 1 hr following administrations of test articles, vehicle, and reference compound via the specified route(s) and on Day 21 post-surgery. […] The rats were randomized based on pre-dose thermal hyperalgesia scores to balanced treatment groups. Rats were preselected (with clear presence of thermal hyperalgesia) on Day 20. Thermal hyperalgesia was measured at 1 or 1.5 hr after dosing of test articles, vehicle, and reference compound via the specified route(s) on Day 21. Each rat was placed within a plastic box atop a glass floor for 20 to 30 minutes. A light beam under the floor was aimed at the plantar surface of the left hind paw. The time was measured automatically when the paw was withdrawn away from the thermal stimulus. A cut-off latency of 23 sec was imposed. The latency to withdrawal was obtained for each rat and defined as the heat pain threshold. Mean thresholds and withdrawal latencies were analyzed via Two Way ANOVA followed by Dunnett's Multiple Comparison tests to STZ+VEH group with differences considered significant at p<0.05.

[3] = tested on: A2780 human ovarian carcinoma; experiment: A2780 human ovarian carcinoma xenograft tumor growth delay in athymic nude mice; conditions: 60-day study
Procedure: Female athymic nude mice (Crl:NU(NCr)-Foxnlnu, Charles River Laboratories) were implanted with A2780 human ovarian carcinoma cells to initiate tumor growth.
Each mouse received 1×10^7 cells (0.1 mL cell suspension) subcutaneously in the right flank, and tumors were monitored as their volumes approached the target range of 100 to 150 mm3. Fourteen days later, designated as Day 1 of the study, mice were sorted into six groups of ten each. […] Tumors were measured twice weekly for the study duration.
Starting on Day 1 of the study, six groups (n=10) of female athymic nude mice with established A2780 tumors were treated according to the following plan. Treatments were administered either by intravenous injection (i.v.) or oral gavage (p.o.) and were adjusted to the body weight of the individual animal. Group 1 received Vehicle 1, i.v., once every other day for five doses (qod×5) and Vehicle 2, p.o., once daily to the end of the study (qd to end), and served as the control group for efficacy analysis. Group 2, the paclitaxel monotherapy group, received paclitaxel i.v., qod×5 plus Vehicle 2, p.o., qd to end. Group 3, the ozanimod monotherapy group, received ozanimod p.o., qd to end plus Vehicle 1, i.v., qod×5. Combination Group 4 received ozanimod p.o., qd to end plus paclitaxel i.v., qod×5.
Animals were monitored individually, and each mouse was euthanized when its tumor reached the endpoint volume of 2000 mm3 or on the final day, whichever came first. The time to endpoint (TTE) was calculated for each mouse. Treatment outcome was determined from percent tumor growth delay (% TGD), defined as the percent increase in median TTE for treated versus control mice, with differences in TTE values between groups deemed statistically significant at P<0.05 using logrank survival analysis. Mice were also monitored for complete regression (CR) and partial regression (PR) responses. An animal with a CR at the end of the study was additionally classified as a tumor-free survivor (TFS). Treatment tolerability was assessed by body weight measurements and frequent observation for clinical signs of treatment-related side effects.

[4] = tested on: spinal nerve ligation peripheral neuropathy; experiment: Tactile allodynia and thermal hyperalgesia in spinal nerve ligation (SNL) peripheral neuropathy model; type: in vivo, Sprague Dawley rats
Procedure: A cohort of 48 male Sprague Dawley rats, weighing 225-250 g at arrival, was group housed under constant temperature, humidity and a 12-hour light-dark cycle. Following acclimation to the animal colony, the animals were tested for baseline withdrawal responses to mechanical allodynia and thermal hyperalgesia using the methods described in. Chaplan, S. R., Bach, […]., Chung, J. M. and Yaksh, T. L. Quantitative assessment of tactile allodynia in the rat paw. J. Neurosci. Methods 53: 55-63, 1994; Joris, J. L., Dubner, R. and Hargreaves, K. M. Opioid analgesia at Peripheral Sites: a Target for Opioids Released during Stress and Inflammation? Anesthesia and Analgesia 66(12), 1277-81, 1987; and Kim, S. H. and Chung, J. M. An experimental model of peripheral neuropathy produced by segmental spinal nerve ligation in the rat. Pain 50: 335-63, 1992. […] Thermal hyperalgesia was measured at 1 or 1.5 hr after dosing of test articles, vehicle, and reference compound via the specified route(s) on Day 21. […] The time was measured automatically when the paw was withdrawn away from the thermal stimulus. […] Mean thresholds and withdrawal latencies were analyzed via Two Way ANOVA followed by Dunnett's Multiple Comparison tests to SNL+VEH group with differences considered significant at p<0.05.

## COc1ccc(-c2noc(-c3ccc4c(c3)nnn4CC(C)(C)O)n2)c(C)c1 [Compound 26, 1-{5-[3-(4-methoxy-2-methylphenyl)-1,2,4-oxadiazol-5-yl]-1H-1,2,3-benzotriazol-1-yl}-2-methylpropan-2-ol]
[1]
  Active Doses, mg/kg sc (>50% MPE): ≥0.1 mg/kg

## CCC1(CC)CC(=O)c2cc(-c3nc(-c4cccnc4)no3)ccc2O1 [Compound 103, 2,2-diethyl-6-[3-(pyridin-3-yl)-1,2,4-oxadiazol-5-yl]-3,4-dihydro-2H-1-benzopyran-4-one]
[2]
  Active Doses in STZ Diabetic Neuropathy Model (mg/kg, po) (p < 0.05 compared to STZ + VEH treated mice) MECHANICAL: <100 mg/kg
  Active Doses in STZ Diabetic Neuropathy Model (mg/kg, po) (p < 0.05 compared to STZ + VEH treated mice) THERMAL: <100 mg/kg
[3]; monotherapy vs control, paclitaxel i.v. qod×5, ozanimod or Compound 103 p.o. qd to end
  percent tumor growth delay (% TGD), monotherapy: 15%
[3]; n=10 per group, animals surviving the study
  study survivors: One
[1]
  Active Doses, mg/kg sc (>50% MPE): ≥0.03 mg/kg
[4]; mechanical allodynia, manual von Frey
  Active Doses in SNL Neuropathy Model (mg/kg) (p < 0.05 compared to SNL + VEH treated mice) MECHANICAL: <100 mg/kg
[4]; thermal hyperalgesia, paw withdrawal latency
  Active Doses in SNL Neuropathy Model (mg/kg) (p < 0.05 compared to SNL + VEH treated mice) THERMAL: <100 mg/kg

## CCC1(CC)CC(=O)c2cc(-c3nc(-c4ccncc4OC)no3)ccc2O1 [Compound 212, 2,2-diethyl-6-(3-(3-methoxypyridin-4-yl)-1,2,4-oxadiazol-5-yl)chroman-4-one]
[1]
  Active Doses, mg/kg sc (>50% MPE): ≥0.1 mg/kg

## Cc1ccccc1-c1noc(-c2ccc3c(c2)nnn3C(C)C)n1 [Compound 293, 5-[3-(2-methylphenyl)-1,2,4-oxadiazol-5-yl]-1-(propan-2-yl)-1H-1,2,3-benzotriazole]
[2]
  Active Doses in STZ Diabetic Neuropathy Model (mg/kg, po) (p < 0.05 compared to STZ + VEH treated mice) MECHANICAL: <100 mg/kg
  Active Doses in STZ Diabetic Neuropathy Model (mg/kg, po) (p < 0.05 compared to STZ + VEH treated mice) THERMAL: <100 mg/kg
[1]
  Active Doses, mg/kg sc (>50% MPE): ≥0.1 mg/kg

## CCC1(CC)CC(=O)c2cc(-c3nc(-c4cn[nH]c4)no3)ccc2O1 [Compound 469, 6-(3-(1H-pyrazol-4-yl)-1,2,4-oxadiazol-5-yl)-2,2-diethylchroman-4-one]
[2]
  Active Doses in STZ Diabetic Neuropathy Model (mg/kg, po) (p < 0.05 compared to STZ + VEH treated mice) MECHANICAL: <100 mg/kg
  Active Doses in STZ Diabetic Neuropathy Model (mg/kg, po) (p < 0.05 compared to STZ + VEH treated mice) THERMAL: <100 mg/kg
[1]
  Active Doses, mg/kg sc (>50% MPE): ≥0.01 mg/kg
